Data taken from ChEMBL document CHEMBL1142227, “Structural basis for the high all-trans-retinaldehyde reductase activity of the tumor marker AKR1B10” (Proc Natl Acad Sci U S A, 2007).

Columns and labels:
[1] = target: Aldo-keto reductase family 1 member B10 (Homo sapiens, UniProt O60218); assay: Inhibition of retinaldehyde reductase activity of human AKR1B10
[2] = target: Aldo-keto reductase family 1 member B1 (Rattus norvegicus, UniProt P07943); assay: Inhibition of rat AKR1B4
[3] = target: Aldo-keto reductase family 1 member B1 (Homo sapiens, UniProt P15121); assay: Inhibition of glyceraldehyde reduction activity of human AKR1B1

Chain of Aldo-keto reductase family 1 member B10 (O60218 whole entry): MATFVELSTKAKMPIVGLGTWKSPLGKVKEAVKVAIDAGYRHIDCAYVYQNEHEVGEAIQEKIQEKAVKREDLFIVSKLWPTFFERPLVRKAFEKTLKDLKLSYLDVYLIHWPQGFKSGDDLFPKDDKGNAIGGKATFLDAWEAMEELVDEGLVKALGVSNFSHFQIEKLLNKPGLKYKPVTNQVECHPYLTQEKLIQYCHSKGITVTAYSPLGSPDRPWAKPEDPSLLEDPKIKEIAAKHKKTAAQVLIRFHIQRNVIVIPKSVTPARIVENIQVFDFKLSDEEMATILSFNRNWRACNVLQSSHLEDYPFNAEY

IC50 [1] | IC50 [2] | IC50 [3] | Structure (SMILES)
11.6 nM | 1000 nM |  | COc1ccc2c(C(=S)N(C)CC(=O)O)cccc2c1C(F)(F)F [TOLRESTAT]
 |  | 10 nM | O=CC(O)CO (racemic)
